In patent publication US11230540B2, “Substituted triazole derivatives and uses thereof” (Bayer Pharma Aktiengesellschaft, priority 2017, dated 2022):
pIC50: −log10 of the molar value.

Columns and labels:
human V1a receptor = molecular target: T1, human V1a receptor (Homo sapiens, UniProt P37288); test: Cellular in vitro assay for vasopressin receptor activity, V1a receptor cell line (aequorin luminescence); assay type: cell-based; conditions: for pIC50: CHO cell line transfected with human V1a receptor, [Arg8]-vasopressin at EC50 concentration, read-out: IC50 hV1a; for ratio IC50 hV2/hV1a: selectivity ratio of the IC50 values hV2/hV1a
T1 construct: expressed in transfected cells; host or cells: CHO K1 (Chinese hamster ovary), also stably transfected with a modified aequorin
In short: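 Recombinant CHO K1 cells stably expressing human V1a receptor and aequorin, loaded with coelenterazine, were exposed to test compounds for 10 minutes before [Arg^8]-vasopressin at EC50 concentration. Calcium-triggered luminescence was measured immediately, giving IC50 values.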

human V2 receptor = molecular target: T2, human V2 receptor (Homo sapiens, UniProt P30518); test: Cellular in vitro assay for vasopressin receptor activity, V2 receptor cell line (CRE-luciferase); assay type: cell-based; conditions: CHO cell line transfected with human V2 receptor; [Arg8]-vasopressin at EC50 concentration; read-out: IC50 hV2
T2 construct: expressed in transfected cells; host or cells: CHO K1 (Chinese hamster ovary) expressing firefly luciferase under a CRE-responsive promoter
In short: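 CHO K1 cells stably expressing human V2 receptor with CRE-driven firefly luciferase, plated the day before. Test compounds at various concentrations added together with [Arg^8]-vasopressin at EC50 concentration, 3 h at 37° C, 5% CO2. Luminescence read after Triton lysis and luciferin addition; IC50 values reported.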

T2 sequence (P30518 whole entry): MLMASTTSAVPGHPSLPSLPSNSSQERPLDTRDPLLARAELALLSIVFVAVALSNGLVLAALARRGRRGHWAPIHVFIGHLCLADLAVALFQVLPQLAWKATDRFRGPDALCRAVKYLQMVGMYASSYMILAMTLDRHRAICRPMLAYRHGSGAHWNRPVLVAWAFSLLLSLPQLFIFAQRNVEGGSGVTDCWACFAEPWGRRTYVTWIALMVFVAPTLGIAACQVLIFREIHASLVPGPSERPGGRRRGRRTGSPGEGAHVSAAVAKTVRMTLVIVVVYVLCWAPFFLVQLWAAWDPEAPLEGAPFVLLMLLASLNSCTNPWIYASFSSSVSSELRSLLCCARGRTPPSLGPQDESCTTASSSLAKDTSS
T1 sequence (P37288 whole entry): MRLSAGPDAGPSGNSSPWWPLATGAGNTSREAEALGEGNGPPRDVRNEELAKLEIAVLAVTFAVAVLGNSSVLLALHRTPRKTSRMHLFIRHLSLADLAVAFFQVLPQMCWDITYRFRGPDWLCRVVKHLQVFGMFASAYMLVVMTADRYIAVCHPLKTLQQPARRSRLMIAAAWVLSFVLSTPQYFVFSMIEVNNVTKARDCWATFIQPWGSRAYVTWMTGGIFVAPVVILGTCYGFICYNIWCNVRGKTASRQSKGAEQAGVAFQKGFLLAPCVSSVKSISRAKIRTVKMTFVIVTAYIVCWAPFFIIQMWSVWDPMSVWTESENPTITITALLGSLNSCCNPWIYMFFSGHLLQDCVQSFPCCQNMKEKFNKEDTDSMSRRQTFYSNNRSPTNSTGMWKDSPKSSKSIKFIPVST

## CC(C)(O)CNC(=O)c1nc(Cn2nc(-c3ccc(Cl)cc3)n(C[C@H](O)C(F)(F)F)c2=O)nn1-c1ncccc1C(F)(F)F [Example 52, 3-({3-(4-Chlorophenyl)-5-oxo-4-[(2S)-3,3,3-trifluoro-2-hydroxypropyl]-4,5-dihydro-1H-1,2,4-triazol-1-yl}methyl)-N-(2-hydroxy-2-methylpropyl)-1-[3-(trifluoromethyl)pyridin-2-yl]-1H-1,2,4-triazole-5-carboxamide]
Human V1a receptor
  pIC50: 9.33
  ratio IC50 hV2/hV1a: 82.8
Human V2 receptor
  pIC50: 7.41

## CC1(CNC(=O)c2nc(Cn3nc(-c4ccc(Cl)cc4)n(C[C@H](O)C(F)(F)F)c3=O)nn2-c2ncccc2C(F)(F)F)COC1 [Example 53, 3-({3-(4-Chlorophenyl)-5-oxo-4-[(2S)-3,3,3-trifluoro-2-hydroxypropyl]-4,5-dihydro-1H-1,2,4-triazol-1-yl}methyl)-N-[(3-methyloxetan-3-yl)methyl]-1-[3-(trifluoromethyl)pyridin-2-yl]-1H1,2,4-triazole-5-carboxamide]
Human V1a receptor
  pIC50: 9.19
  ratio IC50 hV2/hV1a: 98.4
Human V2 receptor
  pIC50: 7.20

## O=C(NCCC(F)(F)F)c1nc(Cn2nc(-c3ccc(Cl)cc3)n(C[C@H](O)C(F)(F)F)c2=O)nn1-c1ncccc1C(F)(F)F [Example 54, 3-({3-(4-Chlorophenyl)-5-oxo-4-[(2S)-3,3,3-trifluoro-2-hydroxypropyl]-4,5-dihydro-1H-1,2,4-triazol-1-yl}methyl)-1-[3-(trifluoromethyl)pyridin-2-yl]-N-(3,3,3-trifluoropropyl)-1H-1,2,4-triazole-5-carboxamide]
Human V1a receptor
  pIC50: 9.11
  ratio IC50 hV2/hV1a: 107.1
Human V2 receptor
  pIC50: 7.08

## O=C(NCC1(O)CC1)c1nc(Cn2nc(-c3ccc(Cl)cc3)n(C[C@H](O)C(F)(F)F)c2=O)nn1-c1ncccc1C(F)(F)F [Example 55, 3-({3-(4-Chlorophenyl)-5-oxo-4-[(2S)-3,3,3-trifluoro-2-hydroxypropyl]-4,5-dihydro-1H-1,2,4-triazol-1-yl}methyl)-N-[(1-hydroxycyclopropyl)methyl]-1-[3-(trifluoromethyl)pyridin-2-yl]-1H1,2,4-triazole-5-carboxamide]
Human V1a receptor
  pIC50: 8.81
  ratio IC50 hV2/hV1a: 47.2
Human V2 receptor
  pIC50: 7.14

## CC1(C)CN(C(=O)c2nc(Cn3nc(-c4ccc(Cl)cc4)n(C[C@H](O)C(F)(F)F)c3=O)nn2-c2ncccc2C(F)(F)F)CCO1 [Example 56, 5-(4-Chlorophenyl)-2-({5-(2,2-dimethylmorpholine-4-carbonyl)-1-[3-(trifluoromethyl)pyridin-2-yl]-1H-1,2,4-triazol-3-yl}methyl)-4-[(2S)-3,3,3-trifluoro-2-hydroxypropyl]-2,4-dihydro-3H-1,2,4-triazol-3-one]
Human V1a receptor
  pIC50: 8.96
  ratio IC50 hV2/hV1a: 214.6
Human V2 receptor
  pIC50: 6.63

## CC1(O)CCN(C(=O)c2nc(Cn3nc(-c4ccc(Cl)cc4)n(C[C@H](O)C(F)(F)F)c3=O)nn2-c2ncccc2C(F)(F)F)C1 (stereo partly drawn) [Example 57, 5-(4-Chlorophenyl)-2-({5-[(35)-3-hydroxy-3-methylpyrrolidine-1-carbonyl]-1-[3-(trifluoromethyl)pyridin-2-yl]-1H-1,2,4-triazol-3-yl}methyl)-4-[(2S)-3,3,3-trifluoro-2-hydroxypropyl]-2,4-dihydro-3H-1,2,4-triazol-3-one]
Human V1a receptor
  pIC50: 8.56
  ratio IC50 hV2/hV1a: 160.0
Human V2 receptor
  pIC50: 6.36

## O=C(c1nc(Cn2nc(-c3ccc(Cl)cc3)n(C[C@H](O)C(F)(F)F)c2=O)nn1-c1ncccc1C(F)(F)F)N1CC(O)(C(F)(F)F)C1 [Example 58, 5-(4-Chlorophenyl)-2-({5-[3-hydroxy-3-(trifluoromethyl)azetidine-1-carbonyl]-1-[3-(trifluoromethyl)pyridin-2-yl]-1H-1,2,4-triazol-3-yl}methyl)-4-[(2S)-3,3,3-trifluoro-2-hydroxypropyl]-2,4-dihydro-3H-1,2,4-triazol-3-one]
Human V1a receptor
  pIC50: 8.87
  ratio IC50 hV2/hV1a: 322.2
Human V2 receptor
  pIC50: 6.36
